Patent US20090192176A1, “1H-PYRAZOLO[3,4-D]PYRIMIDINE, PURINE, 7H-PURIN-8(9H)-ONE, 3H-[1,2,3]TRIAZOLO[4,5-D]PYRIMIDINE, AND THIENO[3,2-D]PYRIMIDINE COMPOUNDS, THEIR USE AS mTOR KINASE AND PI3 KINASE INHIBITORS, AND THEIR SYNTHESES” (Wyeth, priority 2008, published 2009)

What was measured:
Type in all cases: biochemical
[1] = target: PI3 Kinase α (Homo sapiens, UniProt P42336); experiment: Fluorescence polarization assay for PI3K
Experimental: (§1) Fluorescence Polarization Assay for PI3K
(§2) This assay is used to determine the IC50 of compounds of the present invention as it identifies inhibitors of PI3 kinase by measuring inhibition.
(§3) Reaction Buffer: 20 mM HEPES, pH 7.5, 2 mM MgCl2, 0.05% CHAPS; and 0.01% BME (added fresh) Stop/Detection Buffer: 100 mM HEPES, pH 7.5, 4 mM EDTA, 0.05% CHAPS; ATP 20 mM in water; PIP2 (diC8, cat# P-4508) 1 mM in water (MW=856.5); GST-GRP 1.75 mg/mL or 1.4 mg/mL in 10% glycerol; Red detector (TAMRA) 2.5 μM; Plate: Nunc 384 well black polypropylene fluorescence plate.
(§4) The assay is run by placing 5 μL of diluted enzyme per well, then 5 μL of diluted compound (or 9.5 μL enzyme then 0.5 μL compound in DMSO) is added and mixed. Then, 10 μL substrate is added to start the reaction. The samples are incubated 30-60 minutes, then the reaction is stopped by adding 20 μL stop/detector mix. PI3K is diluted with reaction buffer (e.g., 5 μL or 7.5 μL PI3K into 620 μL reaction buffer), and 5 μL of diluted enzyme is used per well. 5 μL reaction buffer or drug diluted in buffer (e.g., 4 μL/100 so final DMSO is 1% in reaction) is added to each. Pipetting up and down mixes the samples. Alternatively, the enzyme can be diluted to 1215 μL. In this case 9.8 μL is added per well and 0.2 μL compound is added in DMSO. To prepare 1 mL of substrate solution, 955 μL reaction buffer, 40 μL PIP2, and 2.5 μL ATP are mixed. 10 μL of substrate is added to each well to start the reaction.
(§5) Stop/detector mix is prepared by mixing 4 μL Red detector and 1.6 μL or 2.0 μL GST-GRP with 1 mL Stop buffer, which results in 10 nM probe and 70 nM GST-GRP). 20 μL of the stop/detector mix is added to each well to stop the reaction. The plates are read after 30-90 minutes keeping the red probe solutions dark. For the zero time point, stop/detector mix is added to the enzyme just before adding substrate. For an extra control, stop/detector mix is added to buffer (no enzyme) and substrate or to just buffer (no substrate). […] The recommended reaction has 0.06 μL per 20 μL (0.015 μg/20 μL) or 0.01125 μg/15 μL or 0.75 μg/mL. Plates are read on machines with filters for Tamra. The units are mP with no enzyme controls reading app 190-220 mP units. Fully active enzyme reduces fluorescence polarization down to 70-100 mP after 30 minutes. An active compound raises the mP values halfway to control or to 120-150 mP units.

[2] = target: PI3 Kinase γ (Homo sapiens, UniProt P48736); experiment: Fluorescence polarization assay for PI3K
Experimental: as §1, §2, §3, §4, §5

[3] = target: T1, Human mTOR (Homo sapiens, UniProt P42345); experiment: mTOR kinase assay (DELFIA format, purified enzyme); settings: His6-S6K substrate, read-out: TOR Kinase IC50
T1 construct: FLAG
Experimental: mTOR Kinase Assay Methods
Human mTOR assays (See Toral-Barza, et al. Biochem Biophys. Res. Commun. 2005 Jun. 24; 332(1):304-10) with purified enzyme are performed in 96-well plates by DELFIA format as follows. Enzymes are first diluted in kinase assay buffer (10 mM HEPES (pH 7.4), 50 mM NaCl, 50 mM β-glycerophosphate, 10 mM MnCl2, 0.5 mM DTT, 0.25 mM microcystin LR, and […]). To each well, 12 μL of the diluted enzyme is mixed briefly with 0.5 μL test inhibitor or control vehicle dimethylsulfoxide (DMSO). The kinase reaction is initiated by adding 12.5 μL kinase assay buffer containing ATP and His6-S6K to give a final reaction volume of 25 μL containing 800 ng/mL FLAG-TOR, […] and […]. The reaction plate is incubated for 2 hours (linear at 1-6 hours) at room temperature with gentle shaking and then terminated by adding 25 μL Stop buffer (20 mM HEPES (pH 7.4), 20 mM EDTA, 20 mM EGTA). The DELFIA detection of the phosphorylated (Thr-389) His6-S6K is performed at room temperature using a monoclonal anti-P(T389)-p70S6K antibody (1A5, Cell Signaling) labeled with Europium-N1-ITC (Eu) (10.4 Eu per antibody, PerkinElmer). The DELFIA Assay buffer and Enhancement solution can be purchased from PerkinElmer. 45 μL of the terminated kinase reaction mixture is transferred to a MaxiSorp plate (Nunc) containing 55 μL PBS. The His6-S6K is allowed to attach for 2 hours after which the wells are aspirated and washed once with PBS. 100 μL of DELFIA Assay buffer with 40 ng/mL Eu-P(T389)-S6K antibody is added. The antibody binding is continued for 1 hour with gentle agitation. The wells are then aspirated and washed 4 times with PBS containing 0.05% Tween-20 (PBST). 100 μL of DELFIA Enhancement solution is added to each well and the plates are read in a PerkinElmer Victor model plate reader. Data obtained is used to calculate enzymatic activity and enzyme inhibition by potential inhibitors.

PI3 Kinase α, sequence (P42336 whole entry): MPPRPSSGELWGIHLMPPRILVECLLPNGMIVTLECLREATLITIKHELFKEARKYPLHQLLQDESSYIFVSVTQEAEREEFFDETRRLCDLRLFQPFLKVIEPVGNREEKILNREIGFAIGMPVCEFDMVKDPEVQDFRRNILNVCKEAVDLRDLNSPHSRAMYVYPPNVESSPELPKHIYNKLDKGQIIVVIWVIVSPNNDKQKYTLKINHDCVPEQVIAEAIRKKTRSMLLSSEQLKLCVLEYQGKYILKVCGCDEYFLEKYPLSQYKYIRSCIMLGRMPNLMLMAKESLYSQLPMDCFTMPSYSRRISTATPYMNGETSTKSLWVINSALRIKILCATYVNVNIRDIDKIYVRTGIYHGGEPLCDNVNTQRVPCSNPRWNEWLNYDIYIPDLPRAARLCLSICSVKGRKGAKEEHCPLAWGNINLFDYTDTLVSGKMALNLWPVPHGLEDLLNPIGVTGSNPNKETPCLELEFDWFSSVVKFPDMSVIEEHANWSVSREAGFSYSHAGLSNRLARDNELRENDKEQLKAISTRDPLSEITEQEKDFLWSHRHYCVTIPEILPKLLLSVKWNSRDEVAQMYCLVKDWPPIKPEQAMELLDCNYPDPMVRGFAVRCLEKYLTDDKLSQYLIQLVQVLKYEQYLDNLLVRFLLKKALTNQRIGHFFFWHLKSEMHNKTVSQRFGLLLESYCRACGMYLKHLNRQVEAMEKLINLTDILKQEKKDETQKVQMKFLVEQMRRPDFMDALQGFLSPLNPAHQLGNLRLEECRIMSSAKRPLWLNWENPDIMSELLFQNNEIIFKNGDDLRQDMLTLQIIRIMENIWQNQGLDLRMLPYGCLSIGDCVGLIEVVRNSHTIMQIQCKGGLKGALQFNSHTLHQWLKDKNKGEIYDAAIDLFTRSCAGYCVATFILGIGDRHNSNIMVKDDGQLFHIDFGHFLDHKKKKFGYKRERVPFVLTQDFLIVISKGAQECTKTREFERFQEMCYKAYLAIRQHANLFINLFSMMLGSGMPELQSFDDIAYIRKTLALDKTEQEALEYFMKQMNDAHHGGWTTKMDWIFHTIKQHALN
PI3 Kinase α, sequence (P27986 whole entry partner): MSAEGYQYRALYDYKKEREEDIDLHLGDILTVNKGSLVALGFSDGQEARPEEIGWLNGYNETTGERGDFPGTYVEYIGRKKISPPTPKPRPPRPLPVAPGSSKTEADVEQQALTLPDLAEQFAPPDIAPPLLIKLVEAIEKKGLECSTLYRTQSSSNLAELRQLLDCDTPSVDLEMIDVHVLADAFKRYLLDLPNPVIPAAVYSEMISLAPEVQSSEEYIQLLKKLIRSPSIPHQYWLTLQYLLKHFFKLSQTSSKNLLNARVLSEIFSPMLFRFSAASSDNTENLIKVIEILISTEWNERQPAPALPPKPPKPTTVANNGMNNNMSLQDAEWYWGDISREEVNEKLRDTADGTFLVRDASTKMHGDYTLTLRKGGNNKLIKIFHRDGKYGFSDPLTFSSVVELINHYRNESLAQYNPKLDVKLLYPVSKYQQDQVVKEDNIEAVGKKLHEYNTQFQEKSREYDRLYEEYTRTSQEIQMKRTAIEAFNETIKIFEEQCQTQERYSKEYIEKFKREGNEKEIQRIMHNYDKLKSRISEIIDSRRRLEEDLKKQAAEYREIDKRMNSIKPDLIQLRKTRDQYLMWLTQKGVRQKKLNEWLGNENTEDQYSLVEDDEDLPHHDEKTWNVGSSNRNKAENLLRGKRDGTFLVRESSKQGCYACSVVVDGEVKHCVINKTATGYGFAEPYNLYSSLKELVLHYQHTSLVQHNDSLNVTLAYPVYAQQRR
PI3 Kinase γ, sequence (P48736 whole entry): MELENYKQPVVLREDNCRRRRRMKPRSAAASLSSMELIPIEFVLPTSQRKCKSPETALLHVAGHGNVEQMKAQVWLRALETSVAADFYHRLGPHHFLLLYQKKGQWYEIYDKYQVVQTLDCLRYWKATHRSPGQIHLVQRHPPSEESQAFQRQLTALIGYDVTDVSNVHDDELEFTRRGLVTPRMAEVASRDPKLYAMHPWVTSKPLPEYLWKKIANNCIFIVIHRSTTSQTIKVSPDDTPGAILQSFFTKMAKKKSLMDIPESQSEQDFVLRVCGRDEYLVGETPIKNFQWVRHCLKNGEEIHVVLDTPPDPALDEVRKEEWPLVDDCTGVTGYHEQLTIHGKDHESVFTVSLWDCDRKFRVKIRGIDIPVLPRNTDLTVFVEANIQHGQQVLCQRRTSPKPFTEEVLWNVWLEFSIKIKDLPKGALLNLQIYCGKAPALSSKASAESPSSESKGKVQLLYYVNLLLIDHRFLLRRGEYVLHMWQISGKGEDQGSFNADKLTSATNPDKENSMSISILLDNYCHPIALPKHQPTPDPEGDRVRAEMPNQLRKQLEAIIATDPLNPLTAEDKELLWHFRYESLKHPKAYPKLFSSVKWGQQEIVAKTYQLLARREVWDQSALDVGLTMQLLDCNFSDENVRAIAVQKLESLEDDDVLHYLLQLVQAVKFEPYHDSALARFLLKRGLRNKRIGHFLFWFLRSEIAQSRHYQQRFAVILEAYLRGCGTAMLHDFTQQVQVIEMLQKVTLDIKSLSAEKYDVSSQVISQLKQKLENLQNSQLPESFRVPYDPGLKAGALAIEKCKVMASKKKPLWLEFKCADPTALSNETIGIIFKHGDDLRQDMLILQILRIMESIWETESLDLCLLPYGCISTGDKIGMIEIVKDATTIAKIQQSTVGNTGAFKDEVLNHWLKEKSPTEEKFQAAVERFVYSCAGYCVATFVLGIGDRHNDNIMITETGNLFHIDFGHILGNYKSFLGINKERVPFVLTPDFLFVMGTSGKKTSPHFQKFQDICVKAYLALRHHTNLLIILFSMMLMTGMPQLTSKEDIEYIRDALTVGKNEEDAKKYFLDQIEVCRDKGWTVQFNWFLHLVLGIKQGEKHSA

Compound	IC50 [1]	IC50 [2]	IC50 [3]
Oc1cncc(-c2nc(C3=CCOCC3)c3ncn(C4CCN(Cc5ccccc5)CC4)c3n2)c1 [Compound 28, 5-[9-(1-benzylpiperidin-4-yl)-6-(3,6-dihydro-2H-pyran-4-yl)-9H-purin-2-yl]pyridin-3-ol]	0.384 µM	2.4 µM	3.6 µM
Oc1cncc(-c2nc(C3=CCOCC3)c3ncn(C4CCN(Cc5ccccn5)CC4)c3n2)c1 [Compound 31, 5-{6-(3,6-dihydro-2H-pyran-4-yl)-9-[1-(pyridin-2-ylmethyl)piperidin-4-yl]-9H-purin-2-yl}pyridin-3-ol]	0.619 µM	2.99 µM	1.6 µM
Oc1cccc(-c2nc(C3=CCOCC3)c3ncn(C4CCN(Cc5ccc[nH]5)CC4)c3n2)c1 [Compound 15, 3-{6-(3,6-dihydro-2H-pyran-4-yl)-9-[1-(1H-pyrrol-2-ylmethyl)piperidin-4-yl]-9H-purin-2-yl}phenol]	0.28 µM	0.736 µM	1.4 µM
Oc1cccc(-c2nc(C3=CCOCC3)c3nc[nH]c3n2)c1 [Compound 11, 3-[6-(3,6-dihydro-2H-pyran-4-yl)-9H-purin-2-yl]phenol]	0.085 µM	1.25 µM	1.4 µM
OCc1cccc(-c2nc(C3=CCOCC3)c3ncn(C4CCNCC4)c3n2)c1 [Compound 43, {3-[6-(3,6-dihydro-2H-pyran-4-yl)-9-piperidin-4-yl-9H-purin-2-yl]phenyl}methanol]	0.574 µM	2.06 µM	> 4 µM
COc1ccc(CN2CCC(n3cnc4c(C5=CCOCC5)nc(-c5cncc(O)c5)nc43)CC2)cn1 [Compound 32, 5-[6-(3,6-dihydro-2H-pyran-4-yl)-9-{1-[(6-methoxypyridin-3-yl)methyl]piperidin-4-yl}-9H-purin-2-yl]pyridin-3-ol]	0.858 µM	2.53 µM	1.7 µM
Oc1cccc(-c2nc(C3=CCOCC3)c3ncn(C4CCN(Cc5ccco5)CC4)c3n2)c1 [Compound 13, 3-{6-(3,6-dihydro-2H-pyran-4-yl)-9-[1-(2-furylmethyl)piperidin-4-yl]-9H-purin-2-yl}phenol]	0.832 µM	0.859 µM	1.4 µM
Oc1cncc(-c2nc(C3=CCOCC3)c3ncn(C4CCN(Cc5c[nH]c6ccc(F)cc56)CC4)c3n2)c1 [Compound 33, 5-[6-(3,6-dihydro-2H-pyran-4-yl)-9-{1-[(5-fluoro-1H-indol-3-yl)methyl]piperidin-4-yl}-9H-purin-2-yl]pyridin-3-ol]	0.265 µM	0.385 µM	12 µM
COc1ncccc1CN1CCC(n2cnc3c(C4=CCOCC4)nc(-c4cncc(O)c4)nc32)CC1 [Compound 36, 5-[6-(3,6-dihydro-2H-pyran-4-yl)-9-{1-[(2-methoxypyridin-3-yl)methyl]piperidin-4-yl}-9H-purin-2-yl]pyridin-3-ol]	0.506 µM	2.48 µM	2.8 µM

The remaining compounds from weak to strong by IC50 [1], led by results:

IC50 [1]	IC50 [2]	IC50 [3]	Compound
7 µM	> 10 µM		Oc1cccc(-c2nc(C3=CCOCC3)c3ncn(C4CCN(Cc5ccc(F)c(F)c5)CC4)c3n2)c1 [Compound 20, 3-{9-[1-(3,4-difluorobenzyl)piperidin-4-yl]-6-(3,6-dihydro-2H-pyran-4-yl)-9H-purin-2-yl}phenol]
2.67 µM	7 µM	> 4 µM	O=C(Nc1ccc(-c2nc(C3=CCOCC3)c3ncn(C4CCNCC4)c3n2)cc1)NC1CCNCC1 [Compound 26, 1-{4-[6-(3,6-dihydro-2H-pyran-4-yl)-9-piperidin-4-yl-9H-purin-2-yl]phenyl}-3-piperidin-4-ylurea]
1.77 µM	5 µM	1.8 µM	Oc1cccc(-c2nc(C3=CCOCC3)c3ncn(C4CCN(Cc5ccccc5)CC4)c3n2)c1 [Compound 12, 3-[9-(1-benzylpiperidin-4-yl)-6-(3,6-dihydro-2H-pyran-4-yl)-9H-purin-2-yl]phenol]
1.69 µM	7.62 µM	1.7 µM	OCc1cccc(-c2nc(C3=CCOCC3)c3ncn(C4CCN(Cc5ccccn5)CC4)c3n2)c1 [Compound 24, (3-{6-(3,6-dihydro-2H-pyran-4-yl)-9-[1-(pyridin-2-ylmethyl)piperidin-4-yl]-9H-purin-2-yl}phenyl)methanol]
1.63 µM	3.2 µM	2.3 µM	CN1CCC(n2cnc3c(C4=CCOCC4)nc(-c4cccc(O)c4)nc32)CC1 [Compound 16, 3-[6-(3,6-dihydro-2H-pyran-4-yl)-9-(1-methylpiperidin-4-yl)-9H-purin-2-yl]phenol]
1.34 µM	6.74 µM	9.8 µM	5-[9-{1-[(5-bromopyridin-3-yl)methyl]piperidin-4-yl}-6-(3,6-dihydro-2H-pyran-4-yl)-9H-purin-2-yl]pyridin-3-ol [Compound 35]
0.998 µM	1.5 µM	0.23 µM	Oc1cccc(-c2nc(C3=CCOCC3)c3nnn(C4CCN(Cc5ccccc5)CC4)c3n2)c1 [Compound 47, 3-[3-(1-benzylpiperidin-4-yl)-7-(3,6-dihydro-2H-pyran-4-yl)-3H-[1,2,3]triazolo[4,5-d]pyrimidin-5-yl]phenol]
0.628 µM	2.63 µM	4.8 µM	Oc1cncc(-c2nc(C3=CCOCC3)c3ncn(C4CCNCC4)c3n2)c1 [Compound 44, 5-[6-(3,6-dihydro-2H-pyran-4-yl)-9-piperidin-4-yl-9H-purin-2-yl]pyridin-3-ol]
0.543 µM	3.11 µM	0.13 µM	CNC(=O)Nc1ccc(-c2nc(C3=CCOCC3)c3ncn(C4CCN(Cc5ccc[nH]5)CC4)c3n2)cc1 [Compound 41, 1-(4-{6-(3,6-dihydro-2H-pyran-4-yl)-9-[1-(1H-pyrrol-2-ylmethyl)piperidin-4-yl]-9H-purin-2-yl}phenyl)-3-methylurea]
0.526 µM	1.5 µM	13 µM	Nc1ncccc1CN1CCC(n2cnc3c(C4=CCOCC4)nc(-c4cncc(O)c4)nc32)CC1 [Compound 34, 5-[9-{1-[(2-aminopyridin-3-yl)methyl]piperidin-4-yl}-6-(3,6-dihydro-2H-pyran-4-yl)-9H-purin-2-yl]pyridin-3-ol]
0.39 µM	1.04 µM	0.34 µM	OCc1cccc(-c2nc(C3=CCOCC3)c3nn[nH]c3n2)c1 [Compound 49, {3-[7-(3,6-dihydro-2H-pyran-4-yl)-3H-[1,2,3]triazolo[4,5-d]pyrimidin-5-yl]phenyl}methanol]
